Legend:
tubulin [1] = assay: SPOT membrane peptide array, tubulin binding to immobilized Gsα-derived peptides; parameters: species or system Ovine; conditions: equimolar Gsα (150 nM), 37° C., 1 hour; SPOT membrane 1
Description: Peptides were synthesized on to a cellulose membrane with PEG spacer (8×12 cm^2) (AIMS Scientific Products, Braunschweig, Germany) via the C-terminal amino acid in sequential spots by the use of a SPOT synthesis kit (SIGMA genosys, St. Louis, Mo.) (Frank, J. Immunol. Methods 267: 13-26, 2002; Frank, Tetrahedron 48: 9217-9232, 1992). The peptides corresponded to the amino acid sequence of Gsα (Genbank accession number P04895, homo sapiens, Gsα long form; SEQ ID NO: 15), which was divided into overlapping peptides (12 amino acids in length with 7 amino acid overlap between sequential peptide, 73 total spots). Spot 1 corresponded to amino acids 1-12 and Spot 2 corresponded to residues 6-17 in the primary amino acid sequence (SEQ ID NO: 15), etc. […]
Ovine brain tubulin was prepared as previously described (Shelanski et al., Proc. Natl. Acad. Sci. USA. 70: 765-768, 1973). […] Purity of the prepared tubulin, as determined by SDS gel electrophoresis, was always greater than 95%. […] Protein concentrations were determined by Coomasie Blue binding (BioRad Protein Assay) with Bovine Serum Albumin as a standard (Bradford, Anal. Biochem. 72: 248-254, 1976). […]

tubulin [2] = conditions: cited from earlier work

- effect of prior incubation of tubulin with Gsα on tubulin binding to the immobilized peptides (tubulin [1]): prevented tubulin from binding
Substance: Gsα: stimulatory G protein α subunit of adenylyl cyclase
- binding to tubulin (in words) (tubulin [2]): bind with a high affinity
- Kd (tubulin [2]; read-out: KD of tubulin binding): ~130 nM

From patent US20080292627A1, “Compositions and Methods for Treating Mood and Anxiety Disorders” (THE BOARD OF TRUSTEES OF THE UNIVERSITY OF ILLINOIS, priority 2005, published 2008)
